Reference: publication PMC3873929, “Cellular Density Effect on RGD Ligand Internalization in Glioblastoma for MRI Application” (PLoS ONE, 2013)
Where “and” joins values, the source holds several entries; their conditions need not be identical. Identical values can stand only once.

Assays:
Type in all cases: cell-based, Human
U87 cells [1] = assay: T1-weighted MRI (2D FLASH) of U87 cells after uptake of contrast agent; conditions: U87 cells at 7*10^4 cell/cm^2, 400 µM, 4.7 T, unlabeled cells SNR 60
Experimental: E-[c(RGDfK)2]-DOTA-Gd uptake by U87 cells was performed on cells platted at 7.10^4 cells/cm^2. After 24 h, the cells were then incubated for 4 h with 400 µM of E-[c(RGDfK)2]-DOTA-Gd or for 1 h with MnCl2 at 400 µM as positive contrast for the T1-weighted (T1-w) sequence. Then the medium was discarded and the cells were washed with RPMI. The cells were re-suspended at 2.10_6 cells in 100 µL of phosphate buffer saline (PBS) for each condition and mixed with 100 µL of agarose 2% (Sigma-Aldrich).
MR images of cells trapped in agarose gel were acquired on a 4.7 T Biospec system (Bruker, Ettlingen, Germany). The system was equipped with a 6-cm diameter BG6 gradient system capable of 950 mT/m maximum strength. Imaging was performed with a birdcage resonator (35-mm diameter and 80-mm length) tuned at 200.3 MHz. 2D images were acquired with a T1-w sequence (FLASH sequence, TE/TR: 1,6/14 ms, flip angle: 60°, FOV: 25*25 mm, matrix:128*96, […], total acquisition time: 5 min 44 s).

U87 cells [2] = assay: Flow cytometry uptake with endocytosis pathway inhibitors (nystatin, amiloride, chloroquine); conditions: 1 h
Experimental: (§1) Uptakes of E-[c(RGDfK)2]-Alexa488 and iRGD-alexa488 by U87 cells were compared for different cellular densities using flow cytometry. Twenty four multiwell plates (Becton-Dickinson, 2 cm^2/well), were pretreated with collagen (Sigma-Aldrich) (10 µg/cm^2). Then the cells were seeded during 24 h either at densities ranging from 8.10^3 to 10^5 cells/cm2 or at three typical densities being in the lowest, the median and the highest values of the previously mentioned density range. The cells were incubated 1 h with the fluorescent RGD ligands (E-[c(RGDfK)2]-Alexa488, 2 µM; iRGD-alexa488, 15 µM). Then the medium was discarded and the cells were washed with Roswell Park Memorial Institute Medium (RPMI, Gibco Corp). Thereafter the cells were re-suspended in RPMI at 100 cells/µl and analyzed by flow cytometry (Guava easyCyte flow cytometer/counter, Millipore, λexc: 488 nm, λem: 525 nm).
The clathrin-mediated endocytosis and the caveola-dependent endocytosis were characterized by incubations with chloroquine (100 µM) and nystatin (30 µM), respectively. Contribution of macropinocytosis was studied following amiloride treatment (1 mM).
(§2) All of these inhibitors and drugs were applied on the cells for 1 h simultaneously with the fluorescent RGD ligands. When specified, incubation of drugs begun 20 min before the incubation with the RGD ligands. All the reagents were from Sigma-Aldrich.

U87 cells [3] = assay: Fluorescence microscopy of sub-cellular location of fluorescent RGD ligands
Experimental: Protocols for microscopy were identical to those for flow cytometry. Cells were seeded on glass coverslips after collagen treatment as described above. After the different sets of incubations the cells were washed with RPMI and fixed with paraformaldehyde (4%, 20 min). Nuclei were then labeled with DAPI (0.01 mg/ml). After three washes, the coverslips were mounted on glass slides and observed using a Leica DM5500 B (magnification 63×, λexc: 480 nm, λem: 530 nm and λexc:360 nm λem: 470 nm for alexa fluor-488 and DAPI respectively).

U87 cells [4] = assay: Flow cytometry uptake of fluorescent RGD ligands versus cell density; conditions: 8*10^3 to 10^5 cells/cm^2, 1 h incubation, Alexa Fluor-488 conjugates (E-[c(RGDfK)2] 2 µM; iRGD 15 µM)
Experimental: as §1

U87 cells [5] = assay: Flow cytometry uptake under different energy substrates and oxidative metabolism inhibitors
Experimental: Human GBM cell line U87-MG from the American Type Culture Collection (ATCC, LGC standards, Middlesex, UK) was cultured in Dulbecco's modified eagles medium (DMEM, Gibco Corp) supplemented with 10% fetal calf serum (FCS, Gibco Corp), in a humidified atmosphere with 5% CO2 at 37°C. The characterization of the metabolism contribution was performed with DMEM without glucose and pyruvate (DMEM, Gibco Corp). Glucose or pyruvate were added when necessary at the concentration of 1 g/L and 0.11 g/L , respectively.
as §1
The oxidative metabolism was studied with oligomycine (20 µM) and rotenone (10 µM).
as §2

U87 cells [6] = assay: Flow cytometry uptake with cytoskeleton drugs (paclitaxel, cytoD, colchicine, nocodazole); conditions: 1 h
Experimental: as §1
The microtubule targeting was performed using paclitaxel (10 µM), colchicin (7.5 µM) and nocodazole (30 µM).
as §2

U87 cells [7] = assay: T1-weighted MRI (3D FLASH) of U87 cells seeded at three densities and labeled with RGD-Gd; conditions: 400 µM
Experimental: Seeded at three densities, cells were incubated with E-[c(RGDfK)2]-DOTA-Gd at 400 µM for 4 h. The same protocol to prepare cells trapped in agarose gel was used. 3D images of the RGD internalization were acquired with a T1-w sequence (FLASH sequence, TE/TR: 1,5/12 ms, flip angle: 20°, FOV: 30*25*20 mm, matrix:128*128*64, 6 averages, total acquisition time: 9 min 49 s).

## [Cl][Mn][Cl] [MnCl2, reference compound]
U87 cells [1]; positive contrast control, 1 h incubation
  SNR of labeled U87 cells (T1-w MRI): 100

## CRGDK/RGPD/EC [iRGD-alexa488]
U87 cells [2]; amiloride 1 mM
  Effect of macropinocytosis inhibition (amiloride) on internalization: had no effect
U87 cells [2]; chloroquine 100 µM, high density (95000 cell/cm^2 for E-[c(RGDfK)2], 75000 for iRGD), mean ± SEM, n≥3
  Decrease of uptake after chloroquine treatment, high density: 53.9%±2.5%
U87 cells [2]; chloroquine 100 µM, low density (15000 cell/cm^2 for E-[c(RGDfK)2], 7000 for iRGD), mean ± SEM, n≥3
  Decrease of uptake after chloroquine treatment, low density: 42.4%±1.1% and 42%
U87 cells [2]; chloroquine 100 µM, medium density (50000 cell/cm^2 for E-[c(RGDfK)2], 35000 for iRGD), mean ± SEM, n≥3
  Decrease of uptake after chloroquine treatment, medium density: 48.2±0.2%
U87 cells [2]; nystatin 30 µM, all studied cell densities
  Effect of caveolin-dependent endocytosis inhibition (nystatin) on internalization: did not alter
U87 cells [3]; 1 h at 37°C, all studied cell densities, no inhibitor (iRGD-alexa488 15 µM)
  Sub-cellular location of the fluorescent signal: most of the signal appeared intracellular
U87 cells [3]; 1 h at 37°C, no inhibitor (iRGD-alexa488 15 µM)
  Membrane labeling: undetectable
U87 cells [3]; nystatin (30 µM), data not shown
  Fluorescence location in the presence or not of nystatin: inside cytoplasmic vesicles
U87 cells [3]; with chloroquine (100 µM)
  Sub-cellular location of fluorescence during inhibition of clathrin-mediated endocytosis: typical cytoplasmic membrane labeling
U87 cells [4]
  Increase of cell labeling (MFI) at the highest densities compared to the lowest: 30%
U87 cells [5]; DMEM without glucose, no oligomycin, remained cell density dependent
  Internalization without glucose and with or without pyruvate (conditions 2 and 3): not altered
U87 cells [5]; oligomycin 20 µM, glucose 1 g/L, pyruvate 0.11 g/L
  Internalization with oligomycin in presence of glucose and pyruvate (condition 4): decreased more for the lowest cell densities than for the highest ones
U87 cells [5]; oligomycin 20 µM, regardless of the cell density
  Internalization without glucose in the presence of pyruvate and oligomycin (condition 5): strong inhibition
U87 cells [5]; rotenone 10 µM, data not shown
  Internalization with rotenone compared with oligomycin: comparable
U87 cells [6]; colchicine 7.5 µM, high density (80000 cell/cm^2 for E-[c(RGDfK)2], 70000 for iRGD), mean ± SEM, n≥3
  Uptake results after colchicine treatment (strong decrease), high density: 54.8%±0.8%
U87 cells [6]; colchicine 7.5 µM, low density (10000 cell/cm^2), mean ± SEM, n≥3
  Uptake results after colchicine treatment (strong decrease), low density: 55.0%±0.3%
U87 cells [6]; colchicine 7.5 µM, medium density (40000 cell/cm^2 for E-[c(RGDfK)2], 35000 for iRGD), mean ± SEM, n≥3
  Uptake results after colchicine treatment (strong decrease), medium density: 53.1%±0.1%
U87 cells [6]; cytoD 20 µM, high density (80000 cell/cm^2 for E-[c(RGDfK)2], 70000 for iRGD), mean ± SEM, n≥3
  cytoD effect on internalization (decrease), high density: 29.0%±2.1%
U87 cells [6]; cytoD 20 µM, low density (10000 cell/cm^2), mean ± SEM, n≥3
  cytoD effect on internalization (decrease), low density: 29.7%±1.3%
U87 cells [6]; cytoD 20 µM, medium density (35000 cell/cm^2 for iRGD), mean ± SEM, n≥3
  cytoD effect on internalization (decrease), medium density: 23.5%±1.3%
U87 cells [6]; paclitaxel 10 µM
  Effect of paclitaxel (stabilization of polymerized microtubules) on internalization: did not alter

## E-[c(RGDfK)2]-DOTA-Gd (bicyclic or more) [RGD-gadolinium chelate made by mixing E-[c(RGDfK)2]-DOTA with GdCl2; MRI contrast agent]
U87 cells [1]; 4 h incubation
  SNR of labeled U87 cells (T1-w MRI): 70
U87 cells [7]
  SNR values for low, medium and high density compared with each other: not significantly different
U87 cells [7]; p<0.05
  SNR of the different cell densities compared with SNR of control: significantly higher
U87 cells [7]; highest density, 4 h, 3D FLASH 4.7 T
  SNR (T1-w MRI), highest cell density: 16.5
